Laboratory results published in ChEMBL document CHEMBL2163330, “Dynamic modeling of human 5-lipoxygenase-inhibitor interactions helps to discover novel inhibitors” (J Med Chem, 2012).

What was measured:
[1] = molecular target: T1, Polyunsaturated fatty acid 5-lipoxygenase (Homo sapiens, UniProt P09917); assay: Inhibition of human recombinant 5-LOX expressed in Escherichia coli […] incubated 10 mins before substrate addition by fluorescence spectrophotometry based cell free system assay
T1 sequence (P09917 whole entry): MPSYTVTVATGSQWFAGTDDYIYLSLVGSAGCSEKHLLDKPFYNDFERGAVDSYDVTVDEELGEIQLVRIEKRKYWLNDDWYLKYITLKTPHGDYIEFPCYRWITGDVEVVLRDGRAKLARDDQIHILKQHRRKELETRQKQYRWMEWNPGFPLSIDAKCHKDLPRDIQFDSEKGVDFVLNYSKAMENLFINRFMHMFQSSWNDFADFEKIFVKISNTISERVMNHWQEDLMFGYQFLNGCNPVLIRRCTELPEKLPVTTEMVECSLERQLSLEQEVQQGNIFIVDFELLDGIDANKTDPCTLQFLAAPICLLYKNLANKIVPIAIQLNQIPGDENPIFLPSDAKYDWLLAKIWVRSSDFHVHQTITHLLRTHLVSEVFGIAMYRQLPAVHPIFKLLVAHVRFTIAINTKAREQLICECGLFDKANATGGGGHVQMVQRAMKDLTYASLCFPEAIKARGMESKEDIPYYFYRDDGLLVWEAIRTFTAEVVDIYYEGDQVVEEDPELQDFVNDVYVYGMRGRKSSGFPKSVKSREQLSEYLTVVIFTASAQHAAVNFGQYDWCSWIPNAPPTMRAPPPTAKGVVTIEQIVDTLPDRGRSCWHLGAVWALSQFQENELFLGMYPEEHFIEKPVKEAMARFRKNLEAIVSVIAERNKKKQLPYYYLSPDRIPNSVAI

[2] = molecular target: T1, Polyunsaturated fatty acid 5-lipoxygenase; assay: Inhibition of human 5-LOX in A23187-induced human whole blood assessed as reduction in LTB4 production pre-incubated for 20 mins before A23187 addition by enzyme immunoassay
[3] = molecular target: T2, Leukotriene A-4 hydrolase (Homo sapiens) (UniProt P09960); assay: Inhibition of epoxide hydrolase activity of human recombinant leukotriene A4 hydrolase expressed in Escherichia coli assessed as LTB4 production at 100 uM by RP-HPLC
T2 sequence (whole entry): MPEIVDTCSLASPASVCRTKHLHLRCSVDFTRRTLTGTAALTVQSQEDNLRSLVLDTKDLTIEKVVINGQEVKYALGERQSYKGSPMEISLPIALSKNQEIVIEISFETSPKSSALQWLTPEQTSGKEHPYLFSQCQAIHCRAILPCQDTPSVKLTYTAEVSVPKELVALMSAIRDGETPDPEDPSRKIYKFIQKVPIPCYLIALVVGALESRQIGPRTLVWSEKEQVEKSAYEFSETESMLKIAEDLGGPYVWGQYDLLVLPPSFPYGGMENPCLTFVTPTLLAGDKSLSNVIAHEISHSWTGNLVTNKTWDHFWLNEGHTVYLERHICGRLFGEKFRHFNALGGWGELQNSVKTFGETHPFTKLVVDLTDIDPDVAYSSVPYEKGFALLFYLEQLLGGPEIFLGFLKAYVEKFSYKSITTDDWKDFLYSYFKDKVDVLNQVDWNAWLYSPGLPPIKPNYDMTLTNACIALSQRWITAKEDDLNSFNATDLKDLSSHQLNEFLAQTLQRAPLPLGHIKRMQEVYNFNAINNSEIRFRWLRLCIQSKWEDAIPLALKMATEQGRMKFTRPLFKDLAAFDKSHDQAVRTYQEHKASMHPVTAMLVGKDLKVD

[4] = molecular target: Prostaglandin G/H synthase 1 (Homo sapiens) (UniProt P23219); assay: Inhibition of purified COX1 assessed as formation of oxidized TMPD during reduction of PGG2 to PGH2 preincubated for 15 mins by chromogenic assay
Chain of Prostaglandin G/H synthase 1 (Homo sapiens) (P23219 whole entry): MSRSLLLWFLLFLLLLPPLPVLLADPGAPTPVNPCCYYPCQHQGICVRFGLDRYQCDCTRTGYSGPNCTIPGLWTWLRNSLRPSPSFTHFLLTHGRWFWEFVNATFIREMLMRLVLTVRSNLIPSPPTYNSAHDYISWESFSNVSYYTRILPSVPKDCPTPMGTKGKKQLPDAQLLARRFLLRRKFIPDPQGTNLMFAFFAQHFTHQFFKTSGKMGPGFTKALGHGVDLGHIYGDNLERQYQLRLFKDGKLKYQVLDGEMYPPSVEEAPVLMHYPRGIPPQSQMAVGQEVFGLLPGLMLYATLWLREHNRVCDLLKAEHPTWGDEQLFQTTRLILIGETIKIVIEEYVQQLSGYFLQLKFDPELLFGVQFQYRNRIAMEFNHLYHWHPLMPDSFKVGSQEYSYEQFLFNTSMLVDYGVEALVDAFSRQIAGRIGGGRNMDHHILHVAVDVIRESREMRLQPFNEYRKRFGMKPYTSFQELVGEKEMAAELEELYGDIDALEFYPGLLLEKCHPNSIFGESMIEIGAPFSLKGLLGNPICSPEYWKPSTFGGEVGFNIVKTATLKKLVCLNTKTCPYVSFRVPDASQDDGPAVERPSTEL

[5] = molecular target: T3, Prostaglandin G/H synthase 2 (Homo sapiens) (UniProt P35354); assay: Inhibition of purified COX2 assessed as formation of oxidized TMPD during reduction of PGG2 to PGH2 preincubated for 15 mins by chromogenic assay
T3 sequence (whole entry): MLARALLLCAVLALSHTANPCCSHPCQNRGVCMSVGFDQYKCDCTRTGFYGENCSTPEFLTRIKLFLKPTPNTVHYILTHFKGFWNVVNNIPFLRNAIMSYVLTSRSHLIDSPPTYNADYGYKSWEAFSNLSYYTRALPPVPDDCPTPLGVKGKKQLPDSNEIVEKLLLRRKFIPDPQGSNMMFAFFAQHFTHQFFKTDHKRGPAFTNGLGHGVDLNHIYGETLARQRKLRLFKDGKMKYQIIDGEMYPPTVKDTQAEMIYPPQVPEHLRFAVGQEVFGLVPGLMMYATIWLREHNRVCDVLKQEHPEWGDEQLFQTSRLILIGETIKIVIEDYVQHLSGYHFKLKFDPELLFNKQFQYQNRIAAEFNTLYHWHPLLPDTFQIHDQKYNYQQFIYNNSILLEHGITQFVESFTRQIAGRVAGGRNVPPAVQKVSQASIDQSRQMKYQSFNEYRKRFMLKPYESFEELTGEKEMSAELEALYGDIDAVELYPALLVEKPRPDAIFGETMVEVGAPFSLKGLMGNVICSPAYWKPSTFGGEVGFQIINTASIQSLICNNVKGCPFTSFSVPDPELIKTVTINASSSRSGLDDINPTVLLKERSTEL

[6] = molecular target: T4, Prostaglandin E synthase (Homo sapiens, UniProt O14684); assay: Inhibition of mPGES1 in LPS-stimulated human whole blood assessed as reduction in PGE2 production incubated for 24 hrs at 37 degC by enzyme immunoassay
T4 sequence (O14684 whole entry): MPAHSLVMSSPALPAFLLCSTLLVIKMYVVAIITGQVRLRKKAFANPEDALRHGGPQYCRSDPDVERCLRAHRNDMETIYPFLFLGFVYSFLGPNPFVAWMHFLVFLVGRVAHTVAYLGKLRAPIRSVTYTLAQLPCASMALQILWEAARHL

[7] = molecular target: T4, Prostaglandin E synthase; assay: Inhibition of mPGES1 expressed in Escherichia coli Rosetta-DE3 assessed as reduction in PGE2 production by enzyme immunoassay based cell-free system assay
[8] = molecular target: T5, Polyunsaturated fatty acid 5-lipoxygenase (Rattus norvegicus, UniProt P12527); assay: Inhibition of 5-LOX in rat RBL1 cells assessed as reduction in LTB4 production; type: cell-based, RBL-1
T5 sequence (P12527 whole entry): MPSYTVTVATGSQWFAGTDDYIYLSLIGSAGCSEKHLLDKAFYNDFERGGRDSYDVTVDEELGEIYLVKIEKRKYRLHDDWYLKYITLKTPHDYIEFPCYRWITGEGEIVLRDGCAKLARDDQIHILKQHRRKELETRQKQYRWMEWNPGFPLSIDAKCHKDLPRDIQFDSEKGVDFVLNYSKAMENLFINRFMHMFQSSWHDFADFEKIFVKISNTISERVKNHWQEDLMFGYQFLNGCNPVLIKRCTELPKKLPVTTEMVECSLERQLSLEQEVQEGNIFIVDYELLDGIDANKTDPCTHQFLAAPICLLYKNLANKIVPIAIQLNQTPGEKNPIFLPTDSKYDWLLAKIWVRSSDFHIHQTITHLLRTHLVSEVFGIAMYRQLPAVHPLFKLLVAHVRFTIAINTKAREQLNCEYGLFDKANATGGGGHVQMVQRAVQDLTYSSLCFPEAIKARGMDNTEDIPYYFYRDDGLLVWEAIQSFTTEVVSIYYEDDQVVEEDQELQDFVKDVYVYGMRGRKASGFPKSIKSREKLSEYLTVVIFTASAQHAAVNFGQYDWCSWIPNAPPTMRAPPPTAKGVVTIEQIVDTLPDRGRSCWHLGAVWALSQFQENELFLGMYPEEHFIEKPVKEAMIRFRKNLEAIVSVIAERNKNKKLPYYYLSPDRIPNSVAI

SMILES	IC50 [1] [µM]	IC50 [2] [µM]	inhibition [3] [%]	inhibition [4] [%]	inhibition [5] [%]	IC50 [6] [µM]	IC50 [7] [µM]	IC50 [8] [µM]
O=c1/c(=C/c2cc(I)c(O)c([N+](=O)[O-])c2)sc2nc3ccccc3n12	33.8	> 100	< 50					
O=C(CSc1nnnn1-c1ccc(Cl)c(C(=O)O)c1)Nc1ccc(F)cc1	15	> 100	< 50					
COc1ccc(-c2nnc3sc(/C=C/c4ccccc4OC)nn23)cc1	17	> 100	< 50					
Cn1ncc(Cl)c1C(=O)N/N=C/c1ccccc1OC(=O)c1ccc([N+](=O)[O-])cc1	5.4	> 100	< 50					
CC(C)(C)OC(=O)NNS(=O)(=O)c1cccc([N+](=O)[O-])c1	81	> 100	< 50					
Cc1cccc(NC2=NS(=O)(=O)c3cc([N+](=O)[O-])ccc32)c1			< 50	< 50	< 50			
COc1cc(Cl)cc(/C=C2/SC(=O)N(Cc3ccc(F)cc3)C2=O)c1O	68	> 100	< 50					
Cc1nn(Cc2ccc(F)cc2)c(C)c1NC(=O)C1CC(c2cccc(Br)c2)=NO1 (stereo not given)	65	> 100	< 50					
c1ccc2c(c1)OCC(c1nn3c(Cn4nnc5ccccc54)nnc3s1)O2 (stereo not given)	97	> 100	< 50					
N#C/C(=C(/O)c1ccc(Cl)c([N+](=O)[O-])c1)c1nc2ccccc2s1	53	> 100	< 50					
O=[N+]([O-])c1ccc(CSc2cc3ccccc3[nH]2)c([N+](=O)[O-])c1	0.8	23.9	< 50					
O=C(Oc1cccc2ccccc12)c1cc([N+](=O)[O-])cc([N+](=O)[O-])c1	1.04	8.6	< 50	< 50	< 50	7.6	3.6	
Cc1ccc(Sc2nc([N+](=O)[O-])nn2CC(=O)c2ccccc2)cc1	1.4	76	< 50					
O=C(COC(=O)c1ccc(C(=O)c2ccc([N+](=O)[O-])cc2)cc1)c1ccccc1	1.49	48	< 50					
O=C(NC1c2ccccc2Oc2ccccc21)c1ccc(Cl)c([N+](=O)[O-])c1	67	> 100	< 50					
c1ccc(SCc2nnc3sc(-c4ccc5c(c4)OCCO5)nn23)cc1	70	> 100	< 50					

SMILES	IC50 [1] [µM]	IC50 [2] [µM]	inhibition [3] [%]	inhibition [4] [%]	inhibition [5] [%]	IC50 [6] [µM]	IC50 [7] [µM]	IC50 [8] [µM]
Cc1cccc(N=C2NS(=O)(=O)c3cc([N+](=O)[O-])ccc32)c1	1.87	9.7				15.6	6.7	
Cc1ccc2cccc(OC(=O)c3cccc([N+](=O)[O-])c3)c2n1	4.6	> 100	< 50					
CCOc1cc(/C=N\Nc2nc3ccccc3s2)cc([N+](=O)[O-])c1O	0.86	40	< 50					
O=[N+]([O-])c1ccc(Cl)c(S(=O)(=O)n2cnc3ccccc32)c1	6.9	8.1	< 50					
CC1(C)Cc2c(-c3ccccc3)c(-c3ccc(Cl)cc3)c(CC(=O)O)n2C1 [LICOFELONE]						3.9		3.6
CCOc1ccc(S(=O)(=O)N(CC(=O)N2CCc3ccccc3C2)c2ccccc2)cc1	29	> 100	< 50					
O=C1OC(c2ccc3ccccc3c2)=N/C1=C\c1ccc(Cl)cc1	80	> 100	< 50					
COc1ccc(/C=C2\N=C(c3ccc(Cl)c([N+](=O)[O-])c3)OC2=O)c(OC)c1OC	20	> 100	< 50					
COC(=O)c1ccc(NC(=S)NC(=O)c2cc(-c3ccccc3)nc3ccccc23)cc1	45	> 100	< 50					
Cc1cccc(C2=N/C(=C\c3ccc(-c4cccc(Cl)c4)o3)C(=O)O2)c1	14.2	> 100	< 50					
Cc1cc(Cl)ccc1NC(=O)Cn1nnc2sc3c(c2c1=O)CCCC3	44	> 100	< 50					
C/C(NCc1ccc(Cl)c(Cl)c1)=C1\C(=O)N(c2nc3ccccc3s2)N=C1C(F)(F)F	70	> 100	< 50					
O=C1c2ccc([N+](=O)[O-])cc2C(=O)N1CNc1ccc([N+](=O)[O-])cc1	5.3	38	< 50					
Clc1ccc(-c2nn3c(Cc4ccccc4)nnc3s2)cc1Cl	37.5	> 100	< 50					
O=C(NCCNC(=O)c1ccc([N+](=O)[O-])o1)c1ccc2ccccc2n1	82	> 100	< 50					
O=C(O/N=C/c1ccc(Br)cc1)c1cc([N+](=O)[O-])cc([N+](=O)[O-])c1	0.62	36	< 50					
